Measured values: US11730731B2 (INVENTAGE LAB INC., priority 2021, dated 2023)

Tests used:
[1] = tested on: pro-inflammatory cytokines (TNF-α, IL-1β, IL-6, IL-17, iNOS) in SW982 cells; experiment: RT-qPCR of LPS-induced pro-inflammatory cytokine expression in SW982 cells; settings: 6 hours
Excerpt: (§3) Lipopolysaccharide (LPS) was purchased from Sigma-Aldrich (St. Louis, Mo., USA).

MAPKs (ERK, JNK, p38) [2] = experiment: Western blotting of MAPKs activity in LPS-treated Raw 264.7 cells; assay type: cell-based, mouse
Experimental: (§1) Western blotting was performed in the same manner as in Example 6.3. The first antibody used at this time is an antibody against p-ERK, ERK, p-JNK, JNK, p-p38, p38 and calnexin (Cell signaling, CA, USA), and the secondary antibody is anti-mouse or anti-rabbit HRP-binding secondary antibody.
Western blotting was performed in the same manner as in Example 7.4.

p65 NF-κB [3] = experiment: Western blotting of NF-κB activity in LPS-treated Raw 264.7 cells; assay type: cell-based, mouse
[4] = tested on: pro-inflammatory cytokines (TNF-α, IL-1β, IL-6, IL-17, iNOS) in Raw 264.7 cells; experiment: RT-qPCR of LPS-induced pro-inflammatory cytokine expression in Raw 264.7 cells; settings: 6 hours
Excerpt: as §3

p65 NF-κB [5] = experiment: Western blotting of NF-κB activity in LPS-treated SW982 cells; assay type: cell-based, human
Experimental: (§2) 1× Cell lysis buffer (Cell signaling, CA, USA) was mixed with protease and a phosphatase inhibitor and added to SW982 cells. After extracting the protein from the cells, the concentration was measured, and the same amount of protein was developed on an SDS-polyacrylamide gel, and transferred to an ECL nitrocellulose membrane (Amersham Pharmacia Biotech, Inc., Piscataway, N.J., USA) and blocked with nonfat dried milk for 1 hour. Thereafter, the reaction was performed with the first antibody (p65 NF-κB, phospho p65 NF-κB or calnexin; Cell signaling, CA, USA), while shaking at 4° C. for 24 hours. Then, after shaking and washing 3 times for 10 minutes with PBST buffer, the secondary antibody was incubated with anti-mouse or anti-rabbit HRP-conjugated secondary antibody for 1 hour at room temperature, and reacted with the protein band on the membrane using Supersignal west pico ECL solution (Thermo Fisher Scientific Inc.). The results were visualized with the Bio-Rad Gel Documentation system (Bio-Rad Laboratories, Hercules, Calif., USA), and the results were shown in FIG. 26.
as §2, with “phospho p65 NF-κB, p-ERK, ERK, p-JNK, JNK, p-p38, p38 or calnexin;” for “phospho p65 NF-κB or calnexin;”, “Scientific Inc.). […]” for “Scientific Inc.). The results were visualized with the Bio-Rad Gel Documentation system (Bio-Rad Laboratories, Hercules, Calif., USA), and the results were shown in FIG. 26.”

MAPKs (ERK, JNK, p38) [6] = experiment: Western blotting of MAPKs activity in LPS-treated SW982 cells; assay type: cell-based, human
Experimental: as §1
1× Cell lysis buffer (Cell signaling, CA, USA) was mixed with protease and a phosphatase inhibitor and added to SW982 cells. After extracting the protein from the cells, the concentration was measured, and the same amount of protein was developed on an SDS-polyacrylamide gel, and transferred to an ECL nitrocellulose membrane (Amersham Pharmacia Biotech, Inc., Piscataway, N.J., USA) and blocked with nonfat dried milk for 1 hour. Thereafter, the reaction was performed with the first antibody (p65 NF-κB, phospho p65 NF-κB, p-ERK, ERK, p-JNK, JNK, p-p38, p38 or calnexin; Cell signaling, CA, USA), while shaking at 4° C. for 24 hours. Then, after shaking and washing 3 times for 10 minutes with PBST buffer, the secondary antibody was incubated with anti-mouse or anti-rabbit HRP-conjugated secondary antibody for 1 hour at room temperature, and reacted with the protein band on the membrane using Supersignal west pico ECL solution (Thermo Fisher Scientific Inc.). The results were visualized with the Bio-Rad Gel Documentation system (Bio-Rad Laboratories, Hercules, Calif., USA), and the results are shown in FIG. 35.

[7] = LPS 1 ug/ml, 0.5, 1, 10, 100 uM
[8] = LPS 1 ug/ml, naltrexone 200 or 500 ug/ml
[9] = LPS 1 ug/ml, 0.5, 1, 10, 100 uM, 30 minutes
[10] = LPS 1 ug/ml, 0.5, 1, 10, 100 uM, 30 minutes, naltrexone effect at 1 uM

SMILES: O=C1CC[C@@]2(O)[C@H]3Cc4ccc(O)c5c4[C@@]2(CCN3CC2CC2)[C@H]1O5 [Naltrexone, 17-(cyclopropylmethyl)-4,5α-epoxy-3,14-dihydroxymorphinan-6-one]
- cytokine inhibitory activity, naltrexone compared with 6β-naltrexol [1, 7]: superior cytokine inhibitory activity than the metabolite 6β-naltrexol
- expression of cytokines (iNOS, IL-1β, IL-6, TNF-α) induced by LPS [1, 7]: suppressed at all concentrations
- expression of pro-inflammatory cytokines (TNF-α, IL-1β, IL-6, IL-17, iNOS) increased by LPS [1, 8]: significantly inhibited
- phosphorylation of MAPKs (ERK1/2, JNK, p38) (MAPKs (ERK, JNK, p38) [2]; [9]): no inhibitory effect
- phosphorylation of MAPKs increased by LPS (MAPKs (ERK, JNK, p38) [2]; naltrexone 100, 200, 500, or 1000 ug/ml, Western blotting): not inhibited
- p65 NF-κB phosphorylation increased by LPS (p65 NF-κB [3]; [9]): inhibited
- phosphorylation of p65 NF-κB increased by LPS (p65 NF-κB [3]; from a concentration of 500 ug/ml of naltrexone (100, 200, 500, 1000 ug/ml tested), Western blotting): inhibits the activity of NF-κB
- expression of cytokines (iNOS, IL-1β, IL-6, TNF-α) induced by LPS [4, 7]: suppressed at all concentrations
- expression of pro-inflammatory cytokines (TNF-α, IL-1β, IL-6, IL-17, iNOS) increased by LPS [4, 8]: significantly inhibited
- phosphorylation of p65 NF-κB increased by LPS (p65 NF-κB [5]; 200 ug/ml of naltrexone, Western blotting): inhibited
- phosphorylation of p65 NF-κB increased by LPS (p65 NF-κB [5]; [10]): inhibited
- phosphorylation of MAPK increased by LPS (MAPKs (ERK, JNK, p38) [6]; 200 or 500 ug/ml of naltrexone, Western blotting): decreased
- phosphorylation of MAPKs (ERK1/2, JNK, p38) increased by LPS (MAPKs (ERK, JNK, p38) [6]; [10]): inhibited
